Results as given in US12569508B2, “Antimicrobial compositions and methods of use” (priority 2020, dated 2026).

How the values were obtained:
[1] = system: PAO1 biofilm (72 h, transferred); assay: Transferred biofilm model; format: cell-based, P. aeruginosa; settings: 15 μg/mL TOB; 0.05 mg/mL MO-LCNPs; 24 h
Method: Taking into account the toxicity data of the MO-LCNPs, additional biofilm activity studies were conducted to ensure a non-toxic concentration of MO-LCNPs maintained the activity of TOB in the MBEC Assay® PAO1 biofilm model. A variation in this biofilm model was employed to contrast the effect of the MO-LCNPs compared to the standard, MBEC® model. Briefly, from an overnight culture, PAO1 was diluted in M63 media to an OD of 0.01 in 500 μL in 24 well plates and incubated for 72 h at 37° C. to form biofilms. Breath seals were used to permit gas exchange during the 72 h incubation period. The 72 h biofilms were then washed with 200 μL PBS to remove planktonic bacteria. Then, using 500 μL of M63 buffer, the biofilms was scraped off from the bottom of the 24-well plate using a 1 mL pipette tip and transferred into a fresh plate. This formed microcolonies of biofilm that closely resembles the clinical environment. The treatments were then added on top of the biofilms and incubated for a further 24 h at 37° C. The treatments included 15 μg/mL of an unformulated TOB solution and TOB loaded in the MO-LCNPs
The amount of Pluronic F-127 in the MO-LCNPs TOB formulation was also varied to determine the effect the surface stabiliser had on the antimicrobial effect. […]

[2] = Deposition efficiency after nebulisation (Aerogen Pro vibrating mesh nebuliser); format: physicochemical; settings: 100 μL nebulised into 24-well plate
Method: The Aerogen® Pro (vibrating mesh nebuliser) connected to a nebuliser chamber was used to aerosolise unformulated solutions of TOB, and LCNPs loaded with TOB. The nebulisation chamber fitted into the well of a 24-well plate, ensuring the dose was deposited into a single well. Before use, the nebuliser was rinsed twice with 0.9% NaCl. Then each formulation of TOB was tested to ensure an even aerosol was produced. 100 μL of TOB as an unformulated solution, and in MO-LCNPs and PHY-LCNPs was nebulised into the wells of a 24-well plate that contained 200 μL of 0.9% sodium chloride. The total drug concentration was then determined from each well to calculate the total mass deposited. […] The nebulised samples were assessed for particle size and zeta potential, as described above.
For the nebulisation samples and transport studies (see below), TOB was quantified by liquid chromatography tandem mass spectrometry (LC-MS) using a Dionex UltiMate 3000 Binary Rapid Separation LC System (Thermo Scientific, USA) coupled with a TSQ Quantum Access Max (QQQ, Thermo Scientific, USA) and a modified ion-pairing method. […] 3 μL of the samples were injected and quantification was done by ESI+ and the SRM of the ion 468.184→323.960.

[3] = Tobramycin transport across CFBE41o− infected with PAO1 biofilm; format: in vitro ADME, human; settings: human; nebulised; biofilm and epithelium monolayer; read-out: Papp of TOB
Method: (§1) To assess the activity and toxicity or formulations, the CFBE41o− cell line was seeded on Transwell® inserts (0.05×10^6) at the liquid-liquid interface (500 μL apical and 1500 μL basolateral) on day 0. On day 3, the apical side media was removed, and the basolateral side was replaced with 500 μL of media. On day 7, the transepithelial electrical resistance (TEER) was measured through adding 500 μL to the apical chamber of one well and replacing the basolateral side with 1500 μL. The transferred biofilm model, described above, was employed to transfer the PAO1 biofilm on top of the CFBE41o− cell line in the apical compartment of the Transwells® on day 7. After 1 h incubation, the supernatant was removed as the biofilm has settled onto the cells.
(§2) Using the Aerogen® Pro (vibrating mesh nebuliser) and nebulisation chamber, the treatments were then nebulised on top of the biofilm and CFBE41o− cell layer. […]
(§3) After TOB treatments were nebulised, at 5, 15, 30, 60, 120, 240 and 1440 minutes, 100 μL sample was taken from the basolateral compartment and replaced with fresh MEM media. The sample was then filtered through 4 mm Millex® syringe filters before LC-MS/MS analysis, as described above, to quantify the transport of TOB.

[4] = system: CFBE41o− infected with PAO1 biofilm; assay: as above; format: in vitro ADME, human; settings: peak at 2.5 h after nebulisation
Method: as §1, §2, §3

SMILES: NC[C@H]1O[C@H](O[C@H]2[C@H](O)[C@@H](O[C@H]3O[C@H](CO)[C@@H](O)[C@H](N)[C@H]3O)[C@H](N)C[C@@H]2N)[C@H](N)C[C@@H]1O [unformulated TOB, tobramycin]
- reduction in PAO1 load [1]: two
- deposition efficiency of TOB [2]: 3.25%
- Papp at 1440 min, 3.32 mg/mL [3]: 1.91 ×10⁻⁶ cm/s
- TOB reaching the basolateral compartment [4]: 15.8%
